The supplement of paper PMC10307832

Legend:
Test in all cases: relative viability (nuclei count vs DMSO), 5 days (fraction); higher = more cells survive
Dovitinib + Trametinib = compound: CN1CCN(c2ccc3nc(-c4c(N)c5c(F)cccc5[nH]c4=O)[nH]c3c2)CC1 [Dovitinib] + CC(=O)Nc1cccc(-n2c(=O)n(C3CC3)c(=O)c3c(Nc4ccc(I)cc4F)n(C)c(=O)c(C)c32)c1 [Trametinib] (partner 0.02 µM)
Summary of the method: (§1)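 For relative viability, nuclei counts in treated wells were divided by those in vehicle wells. Lung cancer cell lines had been pin-tool dosed in 1536-well plates the day after seeding and cultured for 5 days, then fixed and stained in one step (final 0.05% Triton X-100, 1% formaldehyde, 1 ug/ml Hoechst) and imaged at 4×. Doses were one drug alone or a fixed anchor-drug dose plus five library-drug doses (not always all listed) in √10 steps, and values are duplicate-plate medians.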

Dovitinib + Bortezomib = compound: CN1CCN(c2ccc3nc(-c4c(N)c5c(F)cccc5[nH]c4=O)[nH]c3c2)CC1 [Dovitinib] + CC(C)C[C@H](NC(=O)[C@H](Cc1ccccc1)NC(=O)c1cnccn1)B(O)O [Bortezomib] (partner 0.002 µM)
Summary of the method: as §1

Dovitinib + Pictilisib = compound: CN1CCN(c2ccc3nc(-c4c(N)c5c(F)cccc5[nH]c4=O)[nH]c3c2)CC1 [Dovitinib] + CS(=O)(=O)N1CCN(Cc2cc3nc(-c4cccc5[nH]ncc45)nc(N4CCOCC4)c3s2)CC1 [Pictilisib] (partner 1 µM)
Summary of the method: as §1

Dovitinib + Olaparib = compound: CN1CCN(c2ccc3nc(-c4c(N)c5c(F)cccc5[nH]c4=O)[nH]c3c2)CC1 [Dovitinib] + O=C(c1cc(Cc2n[nH]c(=O)c3ccccc23)ccc1F)N1CCN(C(=O)C2CC2)CC1 [Olaparib] (partner 8 µM)
Summary of the method: as §1

Cell Line | relative viability (Dovitinib + Trametinib; first compound 0.02 µM) | relative viability (Dovitinib + Trametinib; first compound 0.06325 µM) | relative viability (Dovitinib + Trametinib; first compound 0.2 µM) | relative viability (Dovitinib + Trametinib; first compound 0.6325 µM) | relative viability (Dovitinib + Trametinib; first compound 2 µM) | relative viability (Dovitinib + Bortezomib; first compound 0.02 µM) | relative viability (Dovitinib + Bortezomib; first compound 0.06325 µM) | relative viability (Dovitinib + Bortezomib; first compound 0.2 µM) | relative viability (Dovitinib + Bortezomib; first compound 0.6325 µM) | relative viability (Dovitinib + Bortezomib; first compound 2 µM) | relative viability (Dovitinib + Pictilisib; first compound 0.02 µM) | relative viability (Dovitinib + Pictilisib; first compound 0.06325 µM) | relative viability (Dovitinib + Pictilisib; first compound 0.2 µM) | relative viability (Dovitinib + Pictilisib; first compound 0.6325 µM) | relative viability (Dovitinib + Pictilisib; first compound 2 µM) | relative viability (Dovitinib + Olaparib; first compound 0.02 µM) | relative viability (Dovitinib + Olaparib; first compound 0.06325 µM) | relative viability (Dovitinib + Olaparib; first compound 0.2 µM) | relative viability (Dovitinib + Olaparib; first compound 0.6325 µM) | relative viability (Dovitinib + Olaparib; first compound 2 µM)
LCLC-97TM1 | 0.267 | 0.204 | 0.199 | 0.196 | 0.203 | 0.754 | 0.783 | 0.371 | 0.867 | 0.566 | 0.361 | 0.135 | 0.215 | 0.205 | 0.207 | 0.371 | 0.443 | 0.369 | 0.364 | 0.255
LCLC-103H | 0.683 | 0.723 | 0.622 | 0.556 | 0.667 | 1 | 1.07 | 1.01 | 0.987 | 1.13 | 0.661 | 0.555 | 0.645 | 0.614 | 0.577 | 0.765 | 0.763 | 0.751 | 0.759 | 0.718
LOU-NH91 | 0.81 | 0.784 | 0.798 | 0.82 | 0.815 | 0.433 | 0.502 | 0.479 | 0.585 | 0.401 | 0.523 | 0.553 | 0.526 | 0.518 | 0.535 | 0.94 | 0.922 | 0.93 | 0.907 | 0.948
LU99A | 0.534 | 0.505 | 0.541 | 0.481 | 0.557 | 1.15 | 1.08 | 0.987 | 1.05 | 1.32 | 0.312 | 0.323 | 0.336 | 0.359 | 0.34 | 0.256 | 0.279 | 0.275 | 0.276 | 0.281
LXF-289 | 0.619 | 0.716 | 0.695 | 0.612 | 0.662 | 0.924 | 1 | 1.02 | 0.935 | 0.968 | 0.716 | 0.801 | 0.842 | 0.862 | 0.783 | 0.974 | 1.08 | 1.07 | 1.1 | 0.976
NCI-H23 | 0.391 | 0.446 | 0.376 | 0.4 | 0.378 | 0.925 | 1.02 | 1.01 | 1.05 | 1.22 | 0.44 | 0.444 | 0.451 | 0.493 | 0.433 | 0.271 | 0.314 | 0.333 | 0.298 | 0.338
NCI-H322M | 0.557 | 0.506 | 0.507 | 0.496 | 0.543 | 1.21 | 1.21 | 1.19 | 1.12 | 1.16 | 0.501 | 0.446 | 0.464 | 0.542 | 0.674 | 0.727 | 0.697 | 0.74 | 0.858 | 0.881
NCI-H441 | 0.486 | 0.477 | 0.434 | 0.441 | 0.49 | 0.497 | 0.593 | 0.352 | 0.531 | 0.433 | 0.521 | 0.528 | 0.517 | 0.477 | 0.47 | 0.513 | 0.549 | 0.534 | 0.62 | 0.588
NCI-H460 | 0.161 | 0.146 | 0.206 | 0.224 | 0.128 | 1.01 | 1.2 | 1.09 | 1.11 | 1.08 | 0.32 | 0.26 | 0.342 | 0.335 | 0.344 | 0.372 | 0.488 | 0.403 | 0.426 | 0.411
NCI-H520 | 0.599 | 0.619 | 0.812 | 0.586 | 0.638 | 0.527 | 0.725 | 0.63 | 0.488 | 0.348 | 0.203 | 0.247 | 0.337 | 0.269 | 0.227 | 0.358 | 0.315 | 0.332 | 0.33 | 0.389
NCI-H596 | 0.701 | 0.844 | 0.764 | 0.694 | 0.777 | 1.19 | 1.03 | 0.834 | 1.04 | 1.07 | 0.372 | 0.394 | 0.376 | 0.387 | 0.428 | 0.672 | 0.688 | 0.65 | 0.687 | 0.627
NCI-H647 | 0.456 | 0.49 | 0.435 | 0.399 | 0.494 | 0.993 | 1.08 | 1.13 | 0.897 | 0.667 | 0.285 | 0.413 | 0.457 | 0.414 | 0.419 | 0.578 | 0.538 | 0.5 | 0.418 | 0.675
NCI-H650 | 1.02 | 0.952 | 1.08 | 0.946 | 1.21 | 0.883 | 0.711 | 0.729 | 0.709 | 0.806 | 0.867 | 0.789 | 0.931 | 0.758 | 1.01 | 0.348 | 0.388 | 0.391 | 0.414 | 0.429
NCI-H661 | 0.581 | 0.617 | 0.678 | 0.637 | 0.607 | 0.852 | 0.746 | 0.937 | 0.934 | 0.85 | 0.427 | 0.465 | 0.455 | 0.427 | 0.359 | 0.68 | 0.749 | 0.738 | 0.774 | 0.752
